Laboratory results as given in US20070025920A1, “Stable Pharmaceutical Solution Formulations for Pressurized Metered Dose Inhalers” (priority 2004, published 2007).
Where two headings read alike, the source gives them in different places.

Tests used:
[1] = 4 μg per actuation, HCl-stabilised HFA 134a/ethanol solution; stored upright at 5° C.; after nine months; mean of 2 cans; cited from earlier work
[2] = Stability study of the 1 μg/63 μl formulation with 15.2 M phosphoric acid, upright and inverted cans at 40° C. and 75% relative humidity; format: physicochemical; settings: 15% w/w ethanol, HFA 134a, 15.2 M phosphoric acid 0.001 to 0.0027% w/w, six months
Procedure: The formulation of Table 4 (120 actuations/canister, overage of 30 actuations) was filled in aluminum canisters having the internal surface coated with Teflon and fitted with commercial valves having a 63 μl metering chamber. A stability study was carried out by storing the formulation in upright and inverted cans at 40° C. and 75% relative humidity.

[3] = 3.5 μg/50 μl, cited from earlier work
[4] = Stability study of 1 μg/63 μl formulations with 0.1M hydrochloric acid, upright cans at 40° C. and 75% relative humidity; format: physicochemical; settings: 15 w/w ethanol, HFA 134a, three months
Procedure: Two aluminum canisters having the internal surface coated with Teflon and fitted with commercial valves having a 63 μl metering chamber were filled with the following formulations shown in Table 3. A stability study was carried out by storing the formulations in upright cans at 40° C. and 75% relative humidity.

[5] = Stability of the TA 2005 + budesonide HFA 134a composition with phosphoric acid, 40° C. and 75% relative humidity; format: physicochemical; settings: TA 2005 1 μg + budesonide 200 μg/actuation, phosphoric acid 85% 0.0032 or 0.0064% w/w, 0.15% w/w water, three months
Procedure: Two compositions were tested containing TA 2005 and budesonide as active ingredients and two different concentrations of phosphoric acid.
Volume of the valve: 63 μl; strength: TA 2005 1 μg+budesonide 200 μg/actuation; no. of actuations: 120 (34 overfilling doses).
The two active ingredients in the compositions were stable after three months storage at 40° C. and 75% relative humidity, giving residual percent amounts of at least 95% TA 2005 and about 100% of Budesonide.

Q: What does the source list for `COc1ccc(C[C@@H](C)NC[C@H](O)c2ccc(O)c3[nH]c(=O)ccc23)cc1.Cl` [TA 2005, 8-hydroxy-5-[(1R)-1-hydroxy-2-[[(1R)-2-(4-methoxyphenyl)-1-methylethyl]amino]ethyl]-2(1H)-quinolinone hydrochloride]?
A: TA 2005 assay [1]: higher than 95%; residual percent amount of TA 2005 [2]: up to 98%; TA 2005 content, per cent nominal drug concentration ([3]; HFA 134a, 12% w/w ethanol, 1.0% w/w isopropyl myristate, 1.0 μl 0.08M HCl per can (apparent pH about 4.8), Initial): 100.0 per cent; TA 2005 content, per cent nominal drug concentration ([3]; HFA 134a, 12% w/w ethanol, 1.0% w/w isopropyl myristate, 1.4 μl 0.08M HCl per can (apparent pH about 3.2), Initial): 100.0 per cent; TA 2005 content, per cent nominal drug concentration ([3]; 1.0 μl 0.08M HCl per can, 50° C., 22 days upright): 98.3 per cent; TA 2005 content, per cent nominal drug concentration ([3]; 1.0 μl 0.08M HCl per can, 50° C., 83 days upright): 99.4 per cent; TA 2005 content, per cent nominal drug concentration ([3]; 1.4 μl 0.08M HCl per can, 50° C., 22 days upright): 98.2 per cent; TA 2005 content, per cent nominal drug concentration ([3]; 1.4 μl 0.08M HCl per can, 50° C., 83 days upright): 98.8 per cent; percent amount of TA 2005 ([4]; hydrochloric acid 0.1M 0.018 w/w): 73%; percent amount of TA 2005 ([4]; hydrochloric acid 0.1M 0.027 w/w): 77%; residual percent amount [5]: at least 95%
